“Also recorded” adds a separate entry of the source. Where two headings read alike, the source gives them in different places.
Key:
[1] = Wagner et al., Cancer Research 2003; cited from earlier work
B cell lymphoma = settings: 0.1 MBq, B cell lymphoma mouse model; cited from earlier work
fibrosarcoma = settings: about 2.5 MBq, fibrosarcoma mouse model; cited from earlier work
[2] = quenched product
[3] = system: non-parvicellular lung tumor; test: Organ activities in lung tumor-bearing nude mice; settings: about 0.5 MBq non-quenched tracer i.v.
melanoma = test: Organ activities in melanoma-bearing nude mice
Source text: A prognosis as to the tumor/background ratio in a tumor image can be made by means of the tumor/blood radioactivity ratio of a tracer in a tumor model.

[4] = about 0.5 MBq quenched tracer i.v., after 60 min

| Compound | storage in the spleen of mice [1] | tumor/blood radioactivity ratio (B cell lymphoma) | tumor/blood radioactivity ratio (fibrosarcoma) | stability in serum ([2]; serum at room temperature (21° C.)) | stability in serum ([2]; serum in an incubator at 37° C.) | absorption of 18F in bone tissue ([3]; 30 and 60 min) | storage of activity in organs ([3]; organ activities after 30 min and 60 min) | tumor/blood radioactivity ratio (melanoma; [4]) | tumor/organ radioactivity ratios (melanoma; [4]) | storage of 18F in bone (melanoma; about 0.5 MBq quenched tracer i.v., compared with non-quenched product) | PET imaging of tumor (melanoma; melanoma mouse model) | passage of the blood-brain barrier (melanoma; mouse animal experiments) | storage in tumor (melanoma; mouse model, lung tumor and melanoma (summary)) | increase of the fluoride concentration (isotonic NaCl solution at 21° C., over 4 hours, quenched with triethylamine) | stability in isotonic NaCl solution (isotonic NaCl solution, room temperature, before quenching step) | increase of the F ion concentration (isotonic NaCl solution, room temperature, within 1 hour, before quenching step) [%] |
| --- | --- | --- | --- | --- | --- | --- | --- | --- | --- | --- | --- | --- | --- | --- | --- | --- |
| Cc1cn([C@H]2C[C@H]([18F])[C@@H](CO)O2)c(=O)[nH]c1=O [^18F-FLT, 3′-^18F-fluoro-3′-deoxythymidine] | Marked storage | about 7 | 1.8 |  |  |  |  |  |  |  |  |  |  |  |  |  |
| [N-]=[N+]=N[C@H]1C[C@H](n2cc(C([18F])[18F])c(=O)[nH]c2=O)O[C@@H]1CO [α,α-^18F2-AZT, 5,5-^18F-difluoro-3′-deoxy-3′-azidothymidine] |  |  |  | A similar result | markedly improved stability | particularly high | activity was stored in the tumor, in the spleen and in the colon | 3.2 | high | lower | allows PET imaging of melanoma in a mouse model | passes the blood-brain barrier; also recorded: capable of passing the blood-brain barrier | stored in lung tumor and in melanoma | scarcely any increase | stable | 3 to 4.5 |

From patent publication US20080292550A1, “Fluorinated 3'-Deoxythymidine Derivatives, a Method for Their Preparation and Their Use” (MAX-DELBRUECK-CENTRUM FUER MOLEKULARE MEDIZIN, priority 2005, published 2008)
